# Assay results as given in patent US8288375B2, “Fungicidal bicyclic pyrazoles” (E.I. du Pont de Nemours and Company, priority 2007, dated 2012).
# Test system: Septoria tritici
# Assay: Test E: wheat leaf blotch, test suspension sprayed on wheat seedlings, disease rating;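 also: 200 ppm unless marked * meaning 40 ppm or ** meaning 10 ppm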
# Assay type: in vivo
# Conditions: 200 ppm test suspension
row,SMILES,Test E disease control rating
1,Cc1ccccc1-c1nn2c(c1-c1ccnc(NC(C)CO)n1)CCCC2 (centres unmarked) [compound 46],50%
2,C[C@H](CO)Nc1nccc(-c2c(-c3ccc(F)cc3)nn3c2CCCC3)n1 [compound 47],94%
3,C[C@@H](CO)Nc1nccc(-c2c(-c3ccc(F)cc3)nn3c2CCCC3)n1 [compound 48],99%
4,Fc1ccc(-c2nn3c(c2-c2ccnc(NC4CCOCC4)n2)CCCC3)cc1 [compound 49],90%
5,Fc1ccc(-c2nn3c(c2-c2ccnc(Nc4ccc(OC(F)(F)F)cc4)n2)CCCC3)cc1 [compound 60],71%
6,c1cc(-c2c(-c3ccsc3)nn3c2CCCC3)nc(NC2CC2)n1 [compound 61],98%
7,OCC(CO)Nc1nccc(-c2c(-c3ccc(F)cc3)nn3c2CCCC3)n1 [compound 63],82%
8,CC(CS(=O)(=O)[O-])Nc1nccc(-c2c(-c3ccc(F)cc3)nn3c2CCCC3)n1.[Na+] (centres unmarked) [compound 64],0%
9,CONc1nccc(-c2c(-c3ccc(F)cc3)nn3c2CCCC3)n1 [compound 65],98%
10,CC(COC(=O)CCC(=O)O)Nc1nccc(-c2c(-c3ccc(F)cc3)nn3c2CCCC3)n1 (centres unmarked) [compound 66],72%
11,CC(=O)OCC(C)Nc1nccc(-c2c(-c3ccc(F)cc3)nn3c2CCCC3)n1 (centres unmarked) [compound 67],93%
12,CC(COC(=O)c1cccnc1)Nc1nccc(-c2c(-c3ccc(F)cc3)nn3c2CCCC3)n1 (centres unmarked) [compound 68],93%
13,CC(C)Nc1nccc(-c2c(-c3ccc(F)cc3)nn3c2CCCC3)n1.Cl [compound 69],100%
14,CC1CN1c1nccc(-c2c(-c3ccc(F)cc3)nn3c2CCCC3)n1 (centres unmarked) [compound 81],100%

# Test system: Puccinia recondite f sp. tritici
# Assay: Test B: wheat leaf rust, test suspension sprayed on wheat seedlings, disease rating;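 also: 200 ppm unless marked * meaning 40 ppm or ** meaning 10 ppm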
# Assay type: in vivo
# Conditions: 200 ppm test suspension
row,SMILES,Test B disease control rating
1,Cc1ccccc1-c1nn2c(c1-c1ccnc(NC(C)CO)n1)CCCC2 (centres unmarked) [compound 46],74%
2,C[C@H](CO)Nc1nccc(-c2c(-c3ccc(F)cc3)nn3c2CCCC3)n1 [compound 47],91%
3,C[C@@H](CO)Nc1nccc(-c2c(-c3ccc(F)cc3)nn3c2CCCC3)n1 [compound 48],99%
4,Fc1ccc(-c2nn3c(c2-c2ccnc(NC4CCOCC4)n2)CCCC3)cc1 [compound 49],99%
5,Fc1ccc(-c2nn3c(c2-c2ccnc(Nc4ccc(OC(F)(F)F)cc4)n2)CCCC3)cc1 [compound 60],74%
6,c1cc(-c2c(-c3ccsc3)nn3c2CCCC3)nc(NC2CC2)n1 [compound 61],94%
7,OCC(CO)Nc1nccc(-c2c(-c3ccc(F)cc3)nn3c2CCCC3)n1 [compound 63],91%
8,CC(CS(=O)(=O)[O-])Nc1nccc(-c2c(-c3ccc(F)cc3)nn3c2CCCC3)n1.[Na+] (centres unmarked) [compound 64],0%
9,CONc1nccc(-c2c(-c3ccc(F)cc3)nn3c2CCCC3)n1 [compound 65],65%
10,CC(COC(=O)CCC(=O)O)Nc1nccc(-c2c(-c3ccc(F)cc3)nn3c2CCCC3)n1 (centres unmarked) [compound 66],88%
11,CC(=O)OCC(C)Nc1nccc(-c2c(-c3ccc(F)cc3)nn3c2CCCC3)n1 (centres unmarked) [compound 67],100%
12,CC(COC(=O)c1cccnc1)Nc1nccc(-c2c(-c3ccc(F)cc3)nn3c2CCCC3)n1 (centres unmarked) [compound 68],98%
13,CC(C)Nc1nccc(-c2c(-c3ccc(F)cc3)nn3c2CCCC3)n1.Cl [compound 69],97%
14,CC1CN1c1nccc(-c2c(-c3ccc(F)cc3)nn3c2CCCC3)n1 (centres unmarked) [compound 81],98%

# Test system: Pythium aphanidermatum
# Assay: Test L: bluegrass pythium blight, test suspension sprayed on bluegrass seedlings, disease rating;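 also: 200 ppm unless marked * meaning 40 ppm or ** meaning 10 ppm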
# Assay type: in vivo
# Conditions: 200 ppm test suspension
row,SMILES,Test L disease control rating
1,Cc1ccccc1-c1nn2c(c1-c1ccnc(NC(C)CO)n1)CCCC2 (centres unmarked) [compound 46],100%
2,C[C@H](CO)Nc1nccc(-c2c(-c3ccc(F)cc3)nn3c2CCCC3)n1 [compound 47],100%
3,C[C@@H](CO)Nc1nccc(-c2c(-c3ccc(F)cc3)nn3c2CCCC3)n1 [compound 48],100%
4,Fc1ccc(-c2nn3c(c2-c2ccnc(NC4CCOCC4)n2)CCCC3)cc1 [compound 49],99%
5,Fc1ccc(-c2nn3c(c2-c2ccnc(Nc4ccc(OC(F)(F)F)cc4)n2)CCCC3)cc1 [compound 60],0%
6,c1cc(-c2c(-c3ccsc3)nn3c2CCCC3)nc(NC2CC2)n1 [compound 61],99%
7,OCC(CO)Nc1nccc(-c2c(-c3ccc(F)cc3)nn3c2CCCC3)n1 [compound 63],100%
8,CC(CS(=O)(=O)[O-])Nc1nccc(-c2c(-c3ccc(F)cc3)nn3c2CCCC3)n1.[Na+] (centres unmarked) [compound 64],0%
9,CONc1nccc(-c2c(-c3ccc(F)cc3)nn3c2CCCC3)n1 [compound 65],99%
10,CC(COC(=O)CCC(=O)O)Nc1nccc(-c2c(-c3ccc(F)cc3)nn3c2CCCC3)n1 (centres unmarked) [compound 66],100%
11,CC(=O)OCC(C)Nc1nccc(-c2c(-c3ccc(F)cc3)nn3c2CCCC3)n1 (centres unmarked) [compound 67],100%
12,CC(COC(=O)c1cccnc1)Nc1nccc(-c2c(-c3ccc(F)cc3)nn3c2CCCC3)n1 (centres unmarked) [compound 68],100%
13,CC(C)Nc1nccc(-c2c(-c3ccc(F)cc3)nn3c2CCCC3)n1.Cl [compound 69],100%
14,CC1CN1c1nccc(-c2c(-c3ccc(F)cc3)nn3c2CCCC3)n1 (centres unmarked) [compound 81],95%

# Test system: Erysiphe graminis f. sp. tritici
# Assay: Test A: wheat powdery mildew, test suspension sprayed on wheat seedlings, disease rating
# Assay type: in vivo
# Conditions: 200 ppm test suspension; 100 = 100% disease control, 0 = no control
row,SMILES,Test A disease control rating
1,Cc1ccccc1-c1nn2c(c1-c1ccnc(NC(C)CO)n1)CCCC2 (centres unmarked) [compound 46],0%
2,C[C@H](CO)Nc1nccc(-c2c(-c3ccc(F)cc3)nn3c2CCCC3)n1 [compound 47],0%
3,C[C@@H](CO)Nc1nccc(-c2c(-c3ccc(F)cc3)nn3c2CCCC3)n1 [compound 48],0%
4,Fc1ccc(-c2nn3c(c2-c2ccnc(NC4CCOCC4)n2)CCCC3)cc1 [compound 49],76%
5,Fc1ccc(-c2nn3c(c2-c2ccnc(Nc4ccc(OC(F)(F)F)cc4)n2)CCCC3)cc1 [compound 60],0%
6,c1cc(-c2c(-c3ccsc3)nn3c2CCCC3)nc(NC2CC2)n1 [compound 61],79%
7,OCC(CO)Nc1nccc(-c2c(-c3ccc(F)cc3)nn3c2CCCC3)n1 [compound 63],81%
8,CC(CS(=O)(=O)[O-])Nc1nccc(-c2c(-c3ccc(F)cc3)nn3c2CCCC3)n1.[Na+] (centres unmarked) [compound 64],0%
9,CONc1nccc(-c2c(-c3ccc(F)cc3)nn3c2CCCC3)n1 [compound 65],28%
10,CC(COC(=O)CCC(=O)O)Nc1nccc(-c2c(-c3ccc(F)cc3)nn3c2CCCC3)n1 (centres unmarked) [compound 66],0%
11,CC(=O)OCC(C)Nc1nccc(-c2c(-c3ccc(F)cc3)nn3c2CCCC3)n1 (centres unmarked) [compound 67],0%
12,CC(COC(=O)c1cccnc1)Nc1nccc(-c2c(-c3ccc(F)cc3)nn3c2CCCC3)n1 (centres unmarked) [compound 68],0%
13,CC(C)Nc1nccc(-c2c(-c3ccc(F)cc3)nn3c2CCCC3)n1.Cl [compound 69],59%
14,CC1CN1c1nccc(-c2c(-c3ccc(F)cc3)nn3c2CCCC3)n1 (centres unmarked) [compound 81],0%

# Test system: Fusarium graminearum
# Assay: whole plant or invertebrate
# Assay type: in vivo
# Conditions: 200 ppm test suspension
row,SMILES,Test C disease control rating
1,Cc1ccccc1-c1nn2c(c1-c1ccnc(NC(C)CO)n1)CCCC2 (centres unmarked) [compound 46],0%
2,C[C@H](CO)Nc1nccc(-c2c(-c3ccc(F)cc3)nn3c2CCCC3)n1 [compound 47],69%
3,C[C@@H](CO)Nc1nccc(-c2c(-c3ccc(F)cc3)nn3c2CCCC3)n1 [compound 48],99%
4,Fc1ccc(-c2nn3c(c2-c2ccnc(NC4CCOCC4)n2)CCCC3)cc1 [compound 49],100%
5,Fc1ccc(-c2nn3c(c2-c2ccnc(Nc4ccc(OC(F)(F)F)cc4)n2)CCCC3)cc1 [compound 60],91%
6,c1cc(-c2c(-c3ccsc3)nn3c2CCCC3)nc(NC2CC2)n1 [compound 61],98%
7,OCC(CO)Nc1nccc(-c2c(-c3ccc(F)cc3)nn3c2CCCC3)n1 [compound 63],0%
8,CC(CS(=O)(=O)[O-])Nc1nccc(-c2c(-c3ccc(F)cc3)nn3c2CCCC3)n1.[Na+] (centres unmarked) [compound 64],0%
9,CONc1nccc(-c2c(-c3ccc(F)cc3)nn3c2CCCC3)n1 [compound 65],87%
10,CC(COC(=O)CCC(=O)O)Nc1nccc(-c2c(-c3ccc(F)cc3)nn3c2CCCC3)n1 (centres unmarked) [compound 66],83%
11,CC(=O)OCC(C)Nc1nccc(-c2c(-c3ccc(F)cc3)nn3c2CCCC3)n1 (centres unmarked) [compound 67],100%
12,CC(COC(=O)c1cccnc1)Nc1nccc(-c2c(-c3ccc(F)cc3)nn3c2CCCC3)n1 (centres unmarked) [compound 68],99%
13,CC(C)Nc1nccc(-c2c(-c3ccc(F)cc3)nn3c2CCCC3)n1.Cl [compound 69],100%
14,CC1CN1c1nccc(-c2c(-c3ccc(F)cc3)nn3c2CCCC3)n1 (centres unmarked) [compound 81],98%

# Test system: Phytophthora infestans
# Assay: whole plant or invertebrate
# Assay type: in vivo
# Conditions: 200 ppm test suspension
row,SMILES,Test J disease control rating
1,Cc1ccccc1-c1nn2c(c1-c1ccnc(NC(C)CO)n1)CCCC2 (centres unmarked) [compound 46],97%
2,C[C@H](CO)Nc1nccc(-c2c(-c3ccc(F)cc3)nn3c2CCCC3)n1 [compound 47],99%
3,C[C@@H](CO)Nc1nccc(-c2c(-c3ccc(F)cc3)nn3c2CCCC3)n1 [compound 48],99%
4,Fc1ccc(-c2nn3c(c2-c2ccnc(NC4CCOCC4)n2)CCCC3)cc1 [compound 49],100%
5,Fc1ccc(-c2nn3c(c2-c2ccnc(Nc4ccc(OC(F)(F)F)cc4)n2)CCCC3)cc1 [compound 60],9%
6,c1cc(-c2c(-c3ccsc3)nn3c2CCCC3)nc(NC2CC2)n1 [compound 61],97%
7,OCC(CO)Nc1nccc(-c2c(-c3ccc(F)cc3)nn3c2CCCC3)n1 [compound 63],9%
8,CC(CS(=O)(=O)[O-])Nc1nccc(-c2c(-c3ccc(F)cc3)nn3c2CCCC3)n1.[Na+] (centres unmarked) [compound 64],0%
9,CONc1nccc(-c2c(-c3ccc(F)cc3)nn3c2CCCC3)n1 [compound 65],43%
10,CC(COC(=O)CCC(=O)O)Nc1nccc(-c2c(-c3ccc(F)cc3)nn3c2CCCC3)n1 (centres unmarked) [compound 66],97%
11,CC(=O)OCC(C)Nc1nccc(-c2c(-c3ccc(F)cc3)nn3c2CCCC3)n1 (centres unmarked) [compound 67],99%
12,CC(COC(=O)c1cccnc1)Nc1nccc(-c2c(-c3ccc(F)cc3)nn3c2CCCC3)n1 (centres unmarked) [compound 68],95%
13,CC(C)Nc1nccc(-c2c(-c3ccc(F)cc3)nn3c2CCCC3)n1.Cl [compound 69],97%
14,CC1CN1c1nccc(-c2c(-c3ccc(F)cc3)nn3c2CCCC3)n1 (centres unmarked) [compound 81],99%

# Test system: Septoria nodorum
# Assay: Test D: wheat glume blotch, test suspension sprayed on wheat seedlings, disease rating
# Assay type: in vivo
# Conditions: 200 ppm test suspension
row,SMILES,Test D disease control rating
1,Cc1ccccc1-c1nn2c(c1-c1ccnc(NC(C)CO)n1)CCCC2 (centres unmarked) [compound 46],0%
2,C[C@H](CO)Nc1nccc(-c2c(-c3ccc(F)cc3)nn3c2CCCC3)n1 [compound 47],0%
3,C[C@@H](CO)Nc1nccc(-c2c(-c3ccc(F)cc3)nn3c2CCCC3)n1 [compound 48],0%
4,Fc1ccc(-c2nn3c(c2-c2ccnc(NC4CCOCC4)n2)CCCC3)cc1 [compound 49],100%
5,Fc1ccc(-c2nn3c(c2-c2ccnc(Nc4ccc(OC(F)(F)F)cc4)n2)CCCC3)cc1 [compound 60],64%
6,c1cc(-c2c(-c3ccsc3)nn3c2CCCC3)nc(NC2CC2)n1 [compound 61],99%
7,OCC(CO)Nc1nccc(-c2c(-c3ccc(F)cc3)nn3c2CCCC3)n1 [compound 63],0%
8,CC(CS(=O)(=O)[O-])Nc1nccc(-c2c(-c3ccc(F)cc3)nn3c2CCCC3)n1.[Na+] (centres unmarked) [compound 64],0%
9,CONc1nccc(-c2c(-c3ccc(F)cc3)nn3c2CCCC3)n1 [compound 65],31%
10,CC(COC(=O)CCC(=O)O)Nc1nccc(-c2c(-c3ccc(F)cc3)nn3c2CCCC3)n1 (centres unmarked) [compound 66],0%
11,CC(=O)OCC(C)Nc1nccc(-c2c(-c3ccc(F)cc3)nn3c2CCCC3)n1 (centres unmarked) [compound 67],78%
12,CC(COC(=O)c1cccnc1)Nc1nccc(-c2c(-c3ccc(F)cc3)nn3c2CCCC3)n1 (centres unmarked) [compound 68],95%
13,CC(C)Nc1nccc(-c2c(-c3ccc(F)cc3)nn3c2CCCC3)n1.Cl [compound 69],99%
14,CC1CN1c1nccc(-c2c(-c3ccc(F)cc3)nn3c2CCCC3)n1 (centres unmarked) [compound 81],87%
